# Experimental data published in PubChem BioAssay (NCI).
#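 Tested at 5 concentrations; 48 h exposure; 96-well plates; endpoints linearly interpolated, else capped at highest concentration. GI50 = concentration required for 50% inhibition of growth. TGI denotes the concentration required for complete inhibition of growth.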
# Tests used:
# Assay in all cases: NCI-60 cell line screen, 48 h
# MCF7 breast = test system: MCF7 breast
# TK-10 renal = test system: TK-10 renal
# HCT-116 colon = test system: HCT-116 colon
# LOX IMVI melanoma = test system: LOX IMVI melanoma
# UACC-62 melanoma = test system: UACC-62 melanoma
# A498 renal = test system: A498 renal
# T-47D breast = test system: T-47D breast
# MOLT-4 leukemia = test system: MOLT-4 leukemia
# NCI-H226 lung = test system: NCI-H226 lung
# SK-MEL-28 melanoma = test system: SK-MEL-28 melanoma
# OVCAR-3 ovarian = test system: OVCAR-3 ovarian
# CAKI-1 renal = test system: CAKI-1 renal
# SNB-19 CNS = test system: SNB-19 CNS
# MALME-3M melanoma = test system: MALME-3M melanoma
# MDA-MB-468 breast = test system: MDA-MB-468 breast
# NCI-H23 lung = test system: NCI-H23 lung
# A549 NSCLC = test system: A549 NSCLC
# 786-0 renal = test system: 786-0 renal
# EKVX NSCLC = test system: EKVX NSCLC
# HT29 colon = test system: HT29 colon
# OVCAR-5 ovarian = test system: OVCAR-5 ovarian
# OVCAR-8 ovarian = test system: OVCAR-8 ovarian
# RXF 393 renal = test system: RXF 393 renal
# HOP-92 NSCLC = test system: HOP-92 NSCLC
# NCI-H522 lung = test system: NCI-H522 lung
# UACC-257 melanoma = test system: UACC-257 melanoma
# IGROV1 ovarian = test system: IGROV1 ovarian
# SR leukemia = test system: SR leukemia
# NCI/ADR-RES ovarian = test system: NCI/ADR-RES ovarian
# HCT-15 colon = test system: HCT-15 colon
# COLO 205 colon = test system: COLO 205 colon
# K-562 leukemia = test system: K-562 leukemia
# RPMI-8226 leukemia = test system: RPMI-8226 leukemia
# HS 578T breast = test system: HS 578T breast
# HOP-62 NSCLC = test system: HOP-62 NSCLC
# SF-268 CNS = test system: SF-268 CNS
# HL-60(TB) leukemia = test system: HL-60(TB) leukemia
# M14 melanoma = test system: M14 melanoma
# ACHN renal = test system: ACHN renal
# OVCAR-4 ovarian = test system: OVCAR-4 ovarian
# BT-549 breast = test system: BT-549 breast
# KM12 colon = test system: KM12 colon
# PC-3 prostate = test system: PC-3 prostate
# SW-620 colon = test system: SW-620 colon
# SF-539 CNS = test system: SF-539 CNS
# DU-145 prostate = test system: DU-145 prostate
# CCRF-CEM leukemia = test system: CCRF-CEM leukemia
# SN12C renal = test system: SN12C renal
# SF-295 CNS = test system: SF-295 CNS
# MDA-MB-435 = test system: MDA-MB-435
smiles,measurement,setting,value
COc1cc2cc(C(=O)N3C[C@@H](CCl)c4c3cc(OC(=O)N3CCN(C)[C@@H]5CSSC[C@@H]53)c3ccccc43)[nH]c2c(OC)c1OC,GI50,MCF7 breast,28.1 nM
same,TGI,MCF7 breast,12900 nM
same,GI50,TK-10 renal,1290 nM
same,TGI,TK-10 renal,> 100000 nM
same,GI50,HCT-116 colon,187 nM
same,TGI,HCT-116 colon,> 100000 nM
same,GI50,LOX IMVI melanoma,165 nM
same,TGI,LOX IMVI melanoma,829 nM
same,GI50,UACC-62 melanoma,147 nM
same,TGI,UACC-62 melanoma,665 nM
same,GI50,A498 renal,1230 nM
same,TGI,A498 renal,3880 nM
same,GI50,T-47D breast,287 nM
same,TGI,T-47D breast,> 100000 nM
same,GI50,MOLT-4 leukemia,69.7 nM
same,TGI,MOLT-4 leukemia,1780 nM
same,GI50,NCI-H226 lung,1020 nM
same,TGI,NCI-H226 lung,7850 nM
same,GI50,SK-MEL-28 melanoma,261 nM
same,TGI,SK-MEL-28 melanoma,762 nM
same,GI50,OVCAR-3 ovarian,489 nM
same,TGI,OVCAR-3 ovarian,5540 nM
same,GI50,CAKI-1 renal,248 nM
same,TGI,CAKI-1 renal,> 100000 nM
same,GI50,SNB-19 CNS,224 nM
same,TGI,SNB-19 CNS,6410 nM
same,GI50,MALME-3M melanoma,213 nM
same,TGI,MALME-3M melanoma,719 nM
same,GI50,MDA-MB-468 breast,164 nM
same,TGI,MDA-MB-468 breast,392 nM
same,GI50,NCI-H23 lung,45.4 nM
same,TGI,NCI-H23 lung,186 nM
same,GI50,A549 NSCLC,180 nM
same,TGI,A549 NSCLC,> 100000 nM
same,GI50,786-0 renal,197 nM
same,TGI,786-0 renal,579 nM
same,GI50,EKVX NSCLC,230 nM
same,TGI,EKVX NSCLC,1810 nM
same,GI50,HT29 colon,226 nM
same,TGI,HT29 colon,37300 nM
same,GI50,OVCAR-5 ovarian,284 nM
same,TGI,OVCAR-5 ovarian,1400 nM
same,GI50,OVCAR-8 ovarian,151 nM
same,TGI,OVCAR-8 ovarian,2210 nM
same,GI50,RXF 393 renal,132 nM
same,TGI,RXF 393 renal,273 nM
same,GI50,HOP-92 NSCLC,238 nM
same,TGI,HOP-92 NSCLC,809 nM
same,GI50,NCI-H522 lung,146 nM
same,TGI,NCI-H522 lung,531 nM
same,GI50,UACC-257 melanoma,501 nM
same,TGI,UACC-257 melanoma,2990 nM
same,GI50,IGROV1 ovarian,1530 nM
same,TGI,IGROV1 ovarian,> 100000 nM
same,GI50,SR leukemia,37.3 nM
same,TGI,SR leukemia,299 nM
same,GI50,NCI/ADR-RES ovarian,148 nM
same,TGI,NCI/ADR-RES ovarian,613 nM
same,GI50,HCT-15 colon,247 nM
same,TGI,HCT-15 colon,11700 nM
same,GI50,COLO 205 colon,328 nM
same,TGI,COLO 205 colon,1640 nM
same,GI50,K-562 leukemia,397 nM
same,TGI,K-562 leukemia,> 100000 nM
same,GI50,RPMI-8226 leukemia,161 nM
same,TGI,RPMI-8226 leukemia,569 nM
same,GI50,HS 578T breast,2260 nM
same,TGI,HS 578T breast,7040 nM
same,GI50,HOP-62 NSCLC,205 nM
same,TGI,HOP-62 NSCLC,925 nM
same,GI50,SF-268 CNS,175 nM
same,TGI,SF-268 CNS,12200 nM
same,GI50,HL-60(TB) leukemia,52 nM
same,TGI,HL-60(TB) leukemia,640 nM
same,GI50,M14 melanoma,251 nM
same,TGI,M14 melanoma,1060 nM
same,GI50,ACHN renal,28.2 nM
same,TGI,ACHN renal,222 nM
same,GI50,OVCAR-4 ovarian,1620 nM
same,TGI,OVCAR-4 ovarian,> 100000 nM
same,GI50,BT-549 breast,165 nM
same,TGI,BT-549 breast,593 nM
same,GI50,KM12 colon,1100 nM
same,TGI,KM12 colon,26700 nM
same,GI50,PC-3 prostate,358 nM
same,TGI,PC-3 prostate,13700 nM
same,GI50,SW-620 colon,264 nM
same,TGI,SW-620 colon,> 100000 nM
same,GI50,SF-539 CNS,172 nM
same,TGI,SF-539 CNS,477 nM
same,GI50,DU-145 prostate,62.6 nM
same,TGI,DU-145 prostate,> 100000 nM
same,GI50,CCRF-CEM leukemia,105 nM
same,TGI,CCRF-CEM leukemia,1390 nM
same,GI50,SN12C renal,203 nM
same,TGI,SN12C renal,31700 nM
same,GI50,SF-295 CNS,133 nM
same,TGI,SF-295 CNS,474 nM
same,GI50,MDA-MB-435,836 nM
same,TGI,MDA-MB-435,2930 nM
CCN1C(=O)CNc2ncc(-c3ccc(-c4ncn[nH]4)nc3C)nc21,GI50,MDA-MB-468 breast,196 nM
same,TGI,MDA-MB-468 breast,1170 nM
COc1cc[nH]c1/C=C1\C(=O)Nc2ccccc21,GI50,MDA-MB-468 breast,1110 nM
same,TGI,MDA-MB-468 breast,> 25000 nM
O=C(CCl)Nc1ccc(Cl)cc1,GI50,MDA-MB-468 breast,2340 nM
same,TGI,MDA-MB-468 breast,6280 nM
CCOC(=O)Sc1ncnc2nc[nH]c12,GI50,MDA-MB-468 breast,350 nM
same,TGI,MDA-MB-468 breast,> 100000 nM
COc1ccc(OC)c(/C=C/C(=O)N/N=C/c2ccc(Cl)cc2)c1,GI50,MDA-MB-468 breast,76.8 nM
same,TGI,MDA-MB-468 breast,363 nM
CC/C=C\C[C@@H]1C/C=C2/C(=O)C=C[C@H]2C/C=C\CCCC(=O)O1,GI50,MDA-MB-468 breast,976 nM
same,TGI,MDA-MB-468 breast,2580 nM
CN(C)c1ccc(N)cc1,GI50,MDA-MB-468 breast,2810 nM
same,TGI,MDA-MB-468 breast,8700 nM
